Assay results: patent US6235891A, “Glucocorticoid receptor agonist and decreased PP5” (South Alabama Medical Science Foundation, priority 1999, dated 2001)

Assays:
[1] = tested on: serum/glucocorticoid inducible protein kinase (sgk) mRNA; assay: Northern analysis of sgk mRNA; type: cell-based, human; settings: 24 hours
Procedure: The cells were harvested, and total RNA was extracted with TRIzol® Reagent according to the methods of the manufacturer. Total RNA (20 μg) was fractionated on 1% agarose gels containing formaldehyde and transferred to DURLON-UV nylon membranes (Stratagene). Following UV cross-linking, the filters were hybridized with a [α^32 P]probe for human PP5. The human PP5 cDNA probe was generated from the full length coding region of PP5 and [α^32 P]-dATP was labeled with DECAprime® DNA Labeling Kit according to the manufacturer's protocol. […] Quantification of hybridization signals was achieved by analysis of the scanned autoradiograms using the NIH Image program (ImagePC).
The antiproliferative effect of dexamethasone correlates with the presence of wild type p53 and the expression of p21^Waf1/Cip1 mRNA. Referring to FIGS. 1A-1C, the effect of dexamethasone on cell proliferation in p53-defective T-24 human bladder carcinoma, p53-null TR9 human fibroblasts (Webster et al. 1993; Maiyar et al. 1996), and p53 wild-type A549 human lung carcinoma cells was determined by treating cells in log-phase growth with a single dose of 100 nM dexamethasone and counting the number of cells in treated (.cndot.) and untreated (.box-solid.) cultures for six consecutive days following treatment. […] After 24 hours total mRNA was prepared and analyzed for p21 and sgk mRNA levels by Northern analysis. […]

p53 phosphorylation = assay: Immunoprecipitation of [32P]-labelled p53 from A549 cells; type: cell-based, human; settings: six hours, 100 nM dexamethasone or 300 nM ISIS 15534
Procedure: Immunoprecipitation of p53 protein. A549 cells were cultured in 60 mm dishes until the cell cultures were about 80% confluent, washed with PBS and placed for 1 hour in phosphate-free DMEM containing 5% fetal bovine serum. The cell cultures were then treated with 100 nM dexamethasone or 300 nM ISIS 15521 or ISIS 15534 as described previously (Zuo et al. 1998), three dishes per group, and [^32 P] phosphate (0.2 mCi/ml) was added to the media. Six hours after treatment, the cells were collected, washed with ice-cold PBS and stored at -80° C. prior to analysis. […]
Referring to FIGS. 2A-2C, Northern blot analysis of 549 cells following treatment with dexamethasone and/or ISIS 15534 is shown. […] After 24 hours, 20 μg of total RNA was prepared and analyzed for serine/threonine protein phosphatase 5 (PP5), p21^Waf1/Cip1 (p21), and serum/glucocorticoid inducible kinase (sgk) mRNA levels. […] Six hours later, the protein extracts were prepared, and changes in p53 phosphorylation were determined by immunoprecipitation, SDS-PAGE analysis, and visualized by autoradiography (Control, p53 from control cells; ISIS 15534, p53 from cells treated with 500 nM ISIS 15534; Dex, p53 from cells treated with 100 nM dexamethasone).Referring to FIG. 2E, a Western analysis of an Immobilon membrane produced by the transfer of protein from the SDS-PAGE gel and detected with an anti-p53 mouse monoclonal antibody is shown.

Question: For `C[C@@H]1C[C@H]2[C@@H]3CCC4=CC(=O)C=C[C@]4(C)[C@@]3(F)[C@@H](O)C[C@]2(C)[C@@]1(O)C(=O)CO` [dexamethasone, reference compound], which Expression of sgk ([1]; A549 cells, dexamethasone 0-100 nM) is on record?
Answer: dose-dependent increase

Question: What about the Expression of sgk ([1]; all three cell lines (A549, T-24, TR9), 100 nM) of the same molecule?
Answer: induced the expression

Question: And the “Phosphorylation of p53” value (p53 phosphorylation)?
Answer: hyperphosphorylation of p53
